Columns and labels:
HeLa [1] = experiment: Anticancer activity against human Hela cells assessed as inhibition rate at 30 uM by SRB assay relative to control; assay type: functional
A549 [2] = experiment: Anticancer activity against human A549 cells assessed as inhibition rate at 10 uM by SRB assay relative to control; assay type: functional
HeLa [3] = experiment: Anticancer activity against human Hela cells assessed as inhibition rate at 10 uM by SRB assay relative to control; assay type: functional
A549 [4] = experiment: Anticancer activity against human A549 cells assessed as inhibition rate at 30 uM by SRB assay relative to control; assay type: functional
HeLa [5] = experiment: Anticancer activity against human HeLa cells assessed as inhibition of cell proliferation by SRB assay; assay type: functional, cell-based
A549 [6] = experiment: Anticancer activity against human A549 cells assessed as inhibition of cell proliferation by SRB assay; assay type: functional, cell-based
A549 [7] = experiment: Induction of apoptosis in human A549 cells assessed as late apoptotic cells at 5 uM incubated for 24 hrs AnnexinV/ propidium iodide staining based flow cytometry (Rvb= 0.54 %); assay type: functional
A549 [8] = experiment: Induction of apoptosis in human A549 cells assessed as early apoptotic cells at 5 uM incubated for 24 hrs AnnexinV/ propidium iodide staining based flow cytometry (Rvb= 0.79 %); assay type: functional
A549 [9] = experiment: Induction of apoptosis in human A549 cells assessed as late apoptotic cells at 2.5 uM incubated for 24 hrs AnnexinV/ propidium iodide staining based flow cytometry (Rvb= 0.54 %); assay type: functional
A549 [10] = experiment: Induction of apoptosis in human A549 cells assessed as necrotic cells at 5 uM incubated for 24 hrs AnnexinV/ propidium iodide staining based flow cytometry (Rvb= 0.16 %); assay type: functional
A549 [11] = experiment: Induction of apoptosis in human A549 cells assessed as early apoptotic cells at 2.5 uM incubated for 24 hrs AnnexinV/ propidium iodide staining based flow cytometry (Rvb= 0.79 %); assay type: functional
A549 [12] = experiment: Induction of apoptosis in human A549 cells assessed as necrotic cells at 2.5 uM incubated for 24 hrs AnnexinV/ propidium iodide staining based flow cytometry (Rvb= 0.16 %); assay type: functional
A549 [13] = experiment: Induction of apoptosis in human A549 cells assessed as viable cells at 5 uM incubated for 24 hrs AnnexinV/ propidium iodide staining based flow cytometry (Rvb= 98.5 %); assay type: functional; details: read-out: Activity
A549 [14] = experiment: Induction of apoptosis in human A549 cells assessed as viable cells at 2.5 uM incubated for 24 hrs AnnexinV/ propidium iodide staining based flow cytometry (Rvb= 98.5 %); assay type: functional; details: read-out: Activity

IC50 (HeLa [5]) | IC50 (A549 [6]) | SMILES | inhibition at 30 µM (HeLa [1]) | inhibition at 10 µM (A549 [2]) | inhibition at 10 µM (HeLa [3]) | inhibition at 30 µM (A549 [4]) | Activity (A549 [7]) | Activity (A549 [8]) | Activity (A549 [9]) | Activity (A549 [10]) | Activity (A549 [11]) | Activity (A549 [12]) | viability at 5 µM (A549 [13]) | viability at 2.5 µM (A549 [14])
 |  | CCN(CC)c1ccc2cc(C(=O)c3ccc(OCCN4CCN(C(=O)CN5CCN(C(=O)c6ccccc6C(F)(F)F)CC5)CC4)cc3)oc2c1 | 44.1% | 27.3% | 25.5% | 34.5% |  |  |  |  |  |  |  | 
 |  | CCN(CC)c1ccc2cc(C(O)c3ccc(OCCN4CCN(C(=O)CN5CCN(C(=O)c6ccc([N+](=O)[O-])cc6)CC5)CC4)cc3)oc2c1 (stereo not drawn) | 28.3% | 19.2% | 17.2% | 33% |  |  |  |  |  |  |  | 
 |  | CCN(CC)c1ccc2cc(C(=O)c3ccc(OCCN4CCN(C(=O)CN5CCN(C(=O)c6cccc(C(F)(F)F)c6)CC5)CC4)cc3)oc2c1 | 70.1% | 49.3% | 27.4% | 57.8% |  |  |  |  |  |  |  | 
 |  | CCN(CC)c1ccc2cc(C(O)c3ccc(OCCN4CCN(C(=O)CN5CCN(C(=O)c6ccc(Br)cc6C(F)(F)F)CC5)CC4)cc3)oc2c1 (stereo not drawn) | 9.7% | 69.7% | -1.6% | 72.3% |  |  |  |  |  |  |  | 
 |  | CCN(CC)c1ccc2cc(C(=O)c3ccc(OCCN4CCN(C(=O)CN5CCN(C(=O)c6ccc([N+](=O)[O-])cc6)CC5)CC4)cc3)oc2c1 | 24% | 16.5% | 17.2% | 22.9% |  |  |  |  |  |  |  | 
> 30 µM | 1.54 µM | CCN(CC)c1ccc2cc(C(O)c3ccc(OCCN4CCN(C(=O)CN5CCN(C(=O)c6ccc(C)cc6)CC5)CC4)cc3)oc2c1 (stereo not drawn) | 35.9% | 77.9% | 15.9% | 97.2% |  |  |  |  |  |  |  | 
27.2 µM | 8.06 µM | CCN(CC)c1ccc2cc(C(=O)c3ccc(OCCN4CCN(C(=O)CN5CCN(C(=O)c6ccc(OC)cc6)CC5)CC4)cc3)oc2c1 | 64.1% | 65.3% | 27.5% | 85.8% |  |  |  |  |  |  |  | 
> 30 µM | 3.05 µM | CCN(CC)c1ccc2cc(C(O)c3ccc(OCCN4CCN(C(=O)CN5CCN(C(=O)c6ccc7ccccc7c6)CC5)CC4)cc3)oc2c1 (stereo not drawn) | 24% | 77.9% | 12.1% | 89.2% |  |  |  |  |  |  |  | 
 |  | CCN(CC)c1ccc2cc(C(O)c3ccc(OCCN4CCN(C(=O)CN5CCN(C(=O)c6ccc(OC)cc6)CC5)CC4)cc3)oc2c1 (stereo not drawn) | 66.7% | 55.2% | 42% | 63.5% |  |  |  |  |  |  |  | 
 |  | C=C(C)C(=O)N1CCN(CC(=O)N2CCN(CCOc3ccc(C(O)c4cc5ccc(N(CC)CC)cc5o4)cc3)CC2)CC1 (stereo not drawn) | 30.5% | 22.2% | 5.4% | 55.5% |  |  |  |  |  |  |  | 
 |  | CCN(CC)c1ccc2cc(C(=O)c3ccc(OCCN4CCN(C(=O)CN5CCN(C(=O)c6ccc(Br)cc6C(F)(F)F)CC5)CC4)cc3)oc2c1 | 62.2% | 41.4% | 33.2% | 53.8% |  |  |  |  |  |  |  | 
14.8 µM | 24.9 µM | CCN(CC)c1ccc2cc(C(=O)c3ccc(OCCN4CCN(C(=O)CN5CCN(C(=O)c6ccc(Cl)cc6)CC5)CC4)cc3)oc2c1 | 89% | 22.9% | 47.5% | 78.1% |  |  |  |  |  |  |  | 
> 30 µM | 0.12 µM | CCN(CC)c1ccc2cc(C(O)c3ccc(OCCN4CCN(C(=O)CN5CCN(C(=O)c6ccc(C(F)(F)F)cc6)CC5)CC4)cc3)oc2c1 (stereo not drawn) | 19.8% | 92.5% | 11.3% | 95.2% | 3.49% | 1.95% | 1.73% | 0.55% | 1.07% | 0.25% | 94% | 97%
 |  | CCN(CC)c1ccc2cc(C(=O)c3ccc(OCCN4CCN(C(=O)CN5CCN(C(=O)c6cc(Cl)cc(Cl)c6)CC5)CC4)cc3)oc2c1 | 41.7% | 39.8% | 20.1% | 49.3% |  |  |  |  |  |  |  | 
 |  | CCN(CC)c1ccc2cc(C(=O)c3ccc(OCCN4CCN(C(=O)CN5CCN(C(=O)c6cc(F)c(F)c(F)c6F)CC5)CC4)cc3)oc2c1 | 86.6% | 20% | 28% | 61.1% |  |  |  |  |  |  |  | 
